From PMC6422312 (Molecular pharmacology, 2010)
Entries after “also recorded” stand apart in the source; their conditions may differ.

Columns and labels:
wild-type P-gp = wild-type P-gp (Homo sapiens, UniProt P08183); experiment: cell-based
P-gp Q132A mutant [1] = molecular target: T1, P-gp Q132A mutant (Homo sapiens, UniProt P08183, Q132A); conditions: alanine mutants (Q132A, Q773A) vs wild type, rhodamine123 efflux inhibition
P-gp Q773R mutant [2] = molecular target: T2, P-gp Q773R mutant (Homo sapiens, UniProt P08183, Q773R); experiment: cell-based; conditions: IC50 for rhodamine123 efflux inhibition, HEK-293/EBNA cells
P-gp Q132R mutant [3] = molecular target: T3, P-gp Q132R mutant (Homo sapiens, UniProt P08183, Q132R); conditions: rhodamine123 efflux inhibition
P-gp Q132A/Q773A mutant = P-gp Q132A/Q773A mutant (Homo sapiens, UniProt P08183, Q132A/Q773A); experiment: cell-based
P-gp Q132R mutant [4] = molecular target: T3, P-gp Q132R mutant; experiment: cell-based
P-gp Q773A mutant [5] = molecular target: T4, P-gp Q773A mutant (Homo sapiens, UniProt P08183, Q773A); experiment: cell-based
P-gp Q132A mutant [6] = molecular target: T1, P-gp Q132A mutant; experiment: cell-based
[7] = molecular target: P-gp Q132R/Q773R double mutant (Homo sapiens, UniProt P08183, Q132R/Q773R); experiment: Rhodamine123 efflux; format: cell-based; conditions: protein expressed at the cell surface
P-gp Q773R mutant [8] = molecular target: T2, P-gp Q773R mutant; experiment: Rhodamine123 efflux; format: cell-based; conditions: slope of first-order rate constant vs P-gp surface expression (MRK16)
P-gp Q132A mutant [9] = molecular target: T1, P-gp Q132A mutant; experiment: Rhodamine123 efflux; format: cell-based; conditions: Q132A vs wild type
P-gp Q132R mutant [10] = molecular target: T3, P-gp Q132R mutant; experiment: Rhodamine123 efflux; format: cell-based; conditions: slope of first-order rate constant vs P-gp surface expression (MRK16)
P-gp Q773A mutant [11] = molecular target: T4, P-gp Q773A mutant; experiment: Rhodamine123 efflux; format: cell-based; conditions: Q773A vs wild type

T4 sequence (P08183 whole entry Q773A): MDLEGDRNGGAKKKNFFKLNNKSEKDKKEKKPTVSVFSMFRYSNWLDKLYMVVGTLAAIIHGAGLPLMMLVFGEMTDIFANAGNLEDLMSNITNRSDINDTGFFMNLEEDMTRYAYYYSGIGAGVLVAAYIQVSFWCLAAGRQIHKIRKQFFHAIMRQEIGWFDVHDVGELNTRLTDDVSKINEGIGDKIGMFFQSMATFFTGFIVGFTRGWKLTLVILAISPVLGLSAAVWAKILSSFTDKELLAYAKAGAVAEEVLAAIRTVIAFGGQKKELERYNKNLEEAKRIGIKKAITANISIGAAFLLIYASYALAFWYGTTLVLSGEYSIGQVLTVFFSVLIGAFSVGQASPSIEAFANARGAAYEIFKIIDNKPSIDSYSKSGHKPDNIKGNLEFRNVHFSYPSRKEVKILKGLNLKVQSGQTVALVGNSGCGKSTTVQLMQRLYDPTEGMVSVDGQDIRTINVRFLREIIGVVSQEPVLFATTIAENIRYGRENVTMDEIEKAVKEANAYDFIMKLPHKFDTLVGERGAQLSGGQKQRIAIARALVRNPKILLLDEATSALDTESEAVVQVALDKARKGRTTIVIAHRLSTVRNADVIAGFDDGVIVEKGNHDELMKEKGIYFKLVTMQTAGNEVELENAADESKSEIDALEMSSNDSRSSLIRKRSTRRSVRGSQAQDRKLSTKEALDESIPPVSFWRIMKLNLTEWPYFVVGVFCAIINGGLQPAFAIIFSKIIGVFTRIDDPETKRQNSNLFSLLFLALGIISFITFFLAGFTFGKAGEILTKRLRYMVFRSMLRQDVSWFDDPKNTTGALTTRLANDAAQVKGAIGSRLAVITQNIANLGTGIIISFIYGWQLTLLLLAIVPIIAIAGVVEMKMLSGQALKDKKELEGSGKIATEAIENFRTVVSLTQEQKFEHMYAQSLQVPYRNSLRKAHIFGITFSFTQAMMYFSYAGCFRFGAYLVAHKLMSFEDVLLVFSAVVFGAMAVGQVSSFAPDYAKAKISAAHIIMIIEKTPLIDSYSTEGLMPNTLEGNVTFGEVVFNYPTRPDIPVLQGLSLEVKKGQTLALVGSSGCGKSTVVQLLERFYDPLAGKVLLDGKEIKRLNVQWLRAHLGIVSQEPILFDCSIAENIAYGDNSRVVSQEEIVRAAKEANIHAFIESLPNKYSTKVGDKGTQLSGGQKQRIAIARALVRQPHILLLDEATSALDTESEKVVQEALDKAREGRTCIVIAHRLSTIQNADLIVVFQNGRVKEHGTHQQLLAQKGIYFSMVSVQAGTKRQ
T3 sequence (P08183 whole entry Q132R): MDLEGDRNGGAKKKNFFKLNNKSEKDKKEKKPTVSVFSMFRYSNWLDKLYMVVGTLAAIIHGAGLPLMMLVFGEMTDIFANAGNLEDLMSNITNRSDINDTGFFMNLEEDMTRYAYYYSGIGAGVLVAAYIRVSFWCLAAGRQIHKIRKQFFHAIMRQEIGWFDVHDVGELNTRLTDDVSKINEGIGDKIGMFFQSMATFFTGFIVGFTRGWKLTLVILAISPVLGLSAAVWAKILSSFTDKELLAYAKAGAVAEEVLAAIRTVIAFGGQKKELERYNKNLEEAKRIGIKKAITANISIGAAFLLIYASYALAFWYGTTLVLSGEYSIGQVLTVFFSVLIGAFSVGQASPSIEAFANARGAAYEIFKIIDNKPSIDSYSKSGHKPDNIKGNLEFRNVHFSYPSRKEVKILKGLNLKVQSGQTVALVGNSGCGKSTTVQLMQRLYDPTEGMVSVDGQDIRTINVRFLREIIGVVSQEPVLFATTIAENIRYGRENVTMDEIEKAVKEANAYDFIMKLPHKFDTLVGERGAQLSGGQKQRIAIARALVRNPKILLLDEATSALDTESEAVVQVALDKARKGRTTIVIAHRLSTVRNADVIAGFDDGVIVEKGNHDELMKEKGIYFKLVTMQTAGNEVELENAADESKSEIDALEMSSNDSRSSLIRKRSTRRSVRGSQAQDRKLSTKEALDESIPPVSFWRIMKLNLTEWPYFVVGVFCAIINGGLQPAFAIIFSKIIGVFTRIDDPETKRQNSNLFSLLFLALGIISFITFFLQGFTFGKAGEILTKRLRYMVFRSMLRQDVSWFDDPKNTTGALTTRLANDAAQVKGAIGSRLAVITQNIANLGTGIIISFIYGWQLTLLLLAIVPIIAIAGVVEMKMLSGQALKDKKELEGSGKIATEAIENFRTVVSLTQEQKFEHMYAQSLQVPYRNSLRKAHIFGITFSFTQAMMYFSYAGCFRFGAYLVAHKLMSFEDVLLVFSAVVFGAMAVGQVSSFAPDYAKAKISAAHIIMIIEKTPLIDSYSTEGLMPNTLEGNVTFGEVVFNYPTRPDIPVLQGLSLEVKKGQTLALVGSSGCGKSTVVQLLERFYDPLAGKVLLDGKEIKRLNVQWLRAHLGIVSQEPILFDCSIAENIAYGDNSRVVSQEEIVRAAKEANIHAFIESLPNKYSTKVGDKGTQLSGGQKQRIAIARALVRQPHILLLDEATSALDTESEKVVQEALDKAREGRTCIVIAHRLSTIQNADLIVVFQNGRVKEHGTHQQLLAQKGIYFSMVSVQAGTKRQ
T2 sequence (P08183 whole entry Q773R): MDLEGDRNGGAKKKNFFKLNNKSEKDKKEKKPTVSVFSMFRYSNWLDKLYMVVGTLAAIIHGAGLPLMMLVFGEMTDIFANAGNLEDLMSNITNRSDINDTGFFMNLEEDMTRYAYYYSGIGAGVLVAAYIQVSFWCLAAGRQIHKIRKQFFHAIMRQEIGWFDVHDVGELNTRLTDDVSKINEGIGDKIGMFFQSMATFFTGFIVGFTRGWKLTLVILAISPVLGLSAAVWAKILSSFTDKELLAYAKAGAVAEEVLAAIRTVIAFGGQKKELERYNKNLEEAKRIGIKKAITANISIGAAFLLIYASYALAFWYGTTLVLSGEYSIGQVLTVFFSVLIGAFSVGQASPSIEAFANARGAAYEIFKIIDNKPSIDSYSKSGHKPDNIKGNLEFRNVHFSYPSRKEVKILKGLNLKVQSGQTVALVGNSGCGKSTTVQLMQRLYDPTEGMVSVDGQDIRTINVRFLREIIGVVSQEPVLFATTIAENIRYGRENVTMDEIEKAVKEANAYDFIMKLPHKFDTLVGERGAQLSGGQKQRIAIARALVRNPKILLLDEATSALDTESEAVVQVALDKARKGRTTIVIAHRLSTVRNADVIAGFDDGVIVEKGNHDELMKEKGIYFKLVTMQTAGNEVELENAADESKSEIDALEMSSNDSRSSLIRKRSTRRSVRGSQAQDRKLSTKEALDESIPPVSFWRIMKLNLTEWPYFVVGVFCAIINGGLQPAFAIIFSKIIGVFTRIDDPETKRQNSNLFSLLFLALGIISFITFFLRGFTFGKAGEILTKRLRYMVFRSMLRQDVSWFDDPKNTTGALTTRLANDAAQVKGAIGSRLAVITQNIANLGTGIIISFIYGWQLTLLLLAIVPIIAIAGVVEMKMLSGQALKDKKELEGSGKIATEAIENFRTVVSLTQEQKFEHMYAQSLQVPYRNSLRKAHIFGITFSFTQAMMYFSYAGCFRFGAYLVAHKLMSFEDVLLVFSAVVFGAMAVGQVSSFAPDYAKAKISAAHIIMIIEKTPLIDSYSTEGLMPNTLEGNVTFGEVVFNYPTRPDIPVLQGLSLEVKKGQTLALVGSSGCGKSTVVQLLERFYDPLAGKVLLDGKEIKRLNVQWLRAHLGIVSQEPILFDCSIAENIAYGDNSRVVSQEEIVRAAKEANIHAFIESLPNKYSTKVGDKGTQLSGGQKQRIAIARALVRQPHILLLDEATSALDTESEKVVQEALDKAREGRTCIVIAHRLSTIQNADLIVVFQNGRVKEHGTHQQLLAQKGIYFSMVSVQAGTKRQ
T1 sequence (P08183 whole entry Q132A): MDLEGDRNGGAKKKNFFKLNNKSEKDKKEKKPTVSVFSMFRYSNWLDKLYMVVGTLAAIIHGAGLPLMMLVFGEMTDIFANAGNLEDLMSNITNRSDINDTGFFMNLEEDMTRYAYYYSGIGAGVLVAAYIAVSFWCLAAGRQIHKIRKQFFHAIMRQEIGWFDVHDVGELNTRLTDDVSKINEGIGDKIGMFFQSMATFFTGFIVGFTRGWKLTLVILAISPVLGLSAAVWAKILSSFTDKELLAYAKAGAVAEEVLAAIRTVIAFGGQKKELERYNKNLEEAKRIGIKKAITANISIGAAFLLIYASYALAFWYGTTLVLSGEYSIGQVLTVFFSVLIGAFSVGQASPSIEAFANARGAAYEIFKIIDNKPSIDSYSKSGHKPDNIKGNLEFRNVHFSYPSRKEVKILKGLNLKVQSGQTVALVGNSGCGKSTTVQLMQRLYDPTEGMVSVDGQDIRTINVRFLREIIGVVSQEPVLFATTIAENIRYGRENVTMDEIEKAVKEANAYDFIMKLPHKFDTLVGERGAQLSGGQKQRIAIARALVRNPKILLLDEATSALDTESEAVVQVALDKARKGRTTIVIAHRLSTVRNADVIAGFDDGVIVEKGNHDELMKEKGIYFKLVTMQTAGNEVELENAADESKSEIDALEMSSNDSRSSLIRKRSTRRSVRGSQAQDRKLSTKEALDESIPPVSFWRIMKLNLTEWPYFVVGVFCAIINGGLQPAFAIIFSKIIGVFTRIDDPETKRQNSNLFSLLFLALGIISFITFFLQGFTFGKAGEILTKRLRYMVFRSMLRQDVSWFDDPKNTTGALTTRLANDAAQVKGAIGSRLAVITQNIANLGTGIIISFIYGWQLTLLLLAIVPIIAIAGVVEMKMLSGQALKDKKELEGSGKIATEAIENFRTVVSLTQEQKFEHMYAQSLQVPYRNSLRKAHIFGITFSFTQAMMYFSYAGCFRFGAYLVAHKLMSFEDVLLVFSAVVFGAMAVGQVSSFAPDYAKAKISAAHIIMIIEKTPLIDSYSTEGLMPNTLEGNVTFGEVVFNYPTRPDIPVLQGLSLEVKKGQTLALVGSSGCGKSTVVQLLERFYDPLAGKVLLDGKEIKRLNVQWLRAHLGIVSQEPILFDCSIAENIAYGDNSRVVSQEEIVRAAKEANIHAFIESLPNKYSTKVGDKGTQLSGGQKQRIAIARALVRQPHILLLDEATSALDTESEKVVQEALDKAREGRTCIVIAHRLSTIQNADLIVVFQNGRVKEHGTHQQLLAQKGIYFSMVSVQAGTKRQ

Compound	IC50 (wild-type P-gp) [nM]	Change of IC50 values on mutation of glutamine residues to alanine (P-gp Q132A mutant [1])	IC50 (P-gp Q773R mutant [2]) [nM]	Fold difference in IC50 values between the two Arg mutants (P-gp Q132R mutant [3]; Q132R vs Q773R) [fold]	Fold higher IC50 in Q132R than in wild-type P-gp (P-gp Q132R mutant [3]; Q132R vs wild-type) [fold]	IC50 (P-gp Q132A/Q773A mutant) [nM]	IC50 (P-gp Q132R mutant [4]) [nM]	IC50 (P-gp Q773A mutant [5]) [nM]	IC50 (P-gp Q132A mutant [6]) [nM]	Rhodamine123 transport activity [7]	Rhodamine123 transport rate relative to wild-type (P-gp Q773R mutant [8])	Effect of mutation on rhodamine123 transport (P-gp Q132A mutant [9])	Rhodamine123 transport rate relative to wild-type (P-gp Q132R mutant [10])	Effect of mutation on rhodamine123 transport (P-gp Q773A mutant [11])
O=C(CCc1ccccc1)c1ccccc1OCC(O)CN1CCN(c2ccc(F)cc2)CC1 (stereo not drawn) [GPV31, 1-(2-(3-(4-(4-fluorophenyl)piperazin-1-yl)-2-hydroxypropoxy)phenyl)-3-phenylpropan-1-one]	110 ± 60	did not change	20 ± 10	36	~7	120 ± 10	710 ± 460	110 ± 50	100 ± 30	–	–	–	–	–
CCCN(CC(O)COc1ccccc1C(=O)CCc1ccccc1)C(=O)c1ccccc1 (stereo not drawn) [GPV366, N-(2-hydroxy-3-(2-(3-phenylpropanoyl)phenoxy)-propyl)-N-propylbenzamide]	2600 ± 690	did not change	2090 ± 900	–	–	2870 ± 630	2640 ± 590	2400 ± 1470	2570 ± 690	–	–	–	–	–
COC(=O)c1ccccc1-c1c2ccc(=N)cc-2oc2cc(N)ccc12 [rhodamine123]	–	–	–	–	–	–	–	–	–	complete loss of transport activity	24 ± 6 % of wild-type	did not affect; also recorded: comparable with wild-type	52 ± 13 % of wild-type	did not affect; also recorded: comparable with wild-type
